The record followed here is US7265152B2 (ViroPharma Incorporated, priority 2002, dated 2007).

For test [1], the system named is HCV replicon (BB7 sequence) in Huh-7-Clone A cells. Kind of test: HCV replicon assay: ELISA of NS5A protein in replicon-containing cells (Inhibition of Viral RNA Replication). The format is cell-based. The following applies: read-out: Replicon. A digest of the protocol: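 EC50 taken from an 8-point serially diluted dose curve, with NS5A level as read-out: fixed cells probed with primary monoclonal and HRP-conjugated secondary, TMB developed 30 min, OD 650 nm. Compound exposure 72 h in Huh-7-Clone A replicon cells (BB7 sequence).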

A further test concerns the target T1, HCV NS5B (Hepatitis C virus genotype 1b, UniProt Q9WMX2).
T1 construct: fusion protein, of which the carboxyl terminal 21 amino acids were removed to enhance its solubility; His tag (GSHHHHHH); made in house; host or cells: E. coli
Put plainly: Inhibition of viral RNA-dependent RNA polymerase (RdRp), in vitro biochemical assay. Further details: species or system HCV genotype 1b virus (BB7). The following applies: read-out: HCV pol-BB7 IC50. A digest of the protocol: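 IC50 values are the concentrations that halve in vitro RNA synthesis by HCV NS5B polymerase. The enzyme was a C-terminally truncated (Δ21), His-tagged genotype 1b (BB7 consensus) protein purified from E. coli.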

Setting [2] is: Hepatitis C virus, Huh-7-Clone A, NS5A ELISA, 72-hour incubation, ranges of EC50.
Setting [3] is: purified His-tagged NS5B (BB7), carboxyl terminal 21 amino acids removed.
Where [4] appears, read: Hepatitis C virus, HCV replicon assay, ranges of EC50.
Setting [5] is: HCV NS5B RdRp, BB7, activity class.
Setting [6] is: HCV NS5B RdRp, BB7, class symbols A-D.
Where [7] appears, read: Hepatitis C virus, HCV replicon, range of EC50.
The mark [8] stands for this setting: HCV NS5B RdRp, BB7, reported as range class.
[9] abbreviates: HCV NS5B RdRp, BB7 (genotype 1b), reported as class symbols.
[10] abbreviates: Hepatitis C virus, HCV replicon assay, ranges of 50% effective concentration (EC50).
[11] abbreviates: HCV NS5B polymerase, BB7 (genotype 1b), values given as range classes A-D.
Where [12] appears, read: Hepatitis C virus, ranges of EC50 in HCV replicon assay.

Like-named read-outs stand apart in the source and are kept apart here.

`CNC(=O)c1c(-c2ccc(F)cc2)oc2cc(NC)c(OC(C)C)cc12` [Example 19, 2-(4-Fluoro-phenyl)-5-isopropoxy-6-methylamino-benzofuran-3-carboxylic acid methylamide]: in test [1] (setting [2]), the EC50 is less than 1000 nM. Besides, at HCV NS5B (setting [3]), the IC50 was not above 500 nM.
As to `CCN(CC)c1nc(COc2cc3c(C(=O)NC)c(-c4ccc(F)cc4)oc3cc2N(C)S(C)(=O)=O)ns1` [Example 373, 5-(5-Diethylamino-[1,2,4]thiadiazol-3-ylmethoxy)-2-(4-fluoro-phenyl)-6-(methanesulfonyl-methyl-amino)-benzofuran-3-carboxylic acid methylamide], the EC50 in test [1] (setting [4]) was less than 1000 nM. For the same molecule, the IC50 on HCV NS5B (setting [5]) is not above 500 nM.
Take `CCOc1ccc2oc(-c3ccc(Cl)s3)c(C(=O)NC)c2c1` [Example 87, 2-(5-Chloro-thiophen-2-yl)-5-ethoxy-benzofuran-3-carboxylic acid methylamide]: the EC50 in test [1] (setting [2]) was less than 10000 nM. Moreover, the IC50 on HCV NS5B (setting [3]) is not above 500 nM.
Consider `CNC(=O)c1c(-c2ccc(F)cc2)oc2cc(N3CCOCC3)c(OCc3cccc(C(=O)OC)c3)cc12` [Example 263, 3-[2-(4-Fluoro-phenyl)-3-methylcarbamoyl-6-morpholin-4-yl-benzofuran-5-yloxymethyl]-benzoic acid methyl ester], for which, in test [1] (setting [4]), the EC50 is less than 10000 nM. Further, the IC50 at HCV NS5B (setting [6]) is not above 500 nM.
For `CNC(=O)c1c(-c2ccc(F)cc2)oc2cc(N3CCOCC3)c(OCc3cc(C)on3)cc12` [Example 218, 2-(4-Fluoro-phenyl)-5-(5-methyl-isoxazol-3-ylmethoxy)-6-morpholin-4-yl-benzofuran-3-carboxylic acid methylamide], in test [1] (setting [7]), the EC50 is less than 1000 nM. At HCV NS5B (setting [8]), the IC50 is not above 500 nM.
Take “5-(3-Cyano-benzyloxy)-2-(4-fluoro-phenyl)-6-(methanesulfonyl-methoxymethyl-amino)-benzofuran-3-carboxylic acid methylamide [Example 447]”: the EC50 in test [1] (HCV replicon assay, ranges of EC50) was less than 1000 nM. Besides, on HCV NS5B (setting [9]), the IC50 was not above 500 nM.
Take `CNC(=O)c1c(-c2ccc(F)cc2)oc2cc(C3(C)NC(=O)NC3=O)c(OC)cc12` (stereo not shown) [Example 389, 2-(4-Fluoro-phenyl)-5-methoxy-6-(4-methyl-2,5-dioxo-imidazolidin-4-yl)-benzofuran-3-carboxylic acid methylamide]: the EC50 in test [1] (setting [10]) was less than 10000 nM. Further, the concentration for half-maximal inhibition (IC50) on HCV NS5B (setting [11]) was not above 500 nM.
For `CNC(=O)c1c(-c2ccc(F)c(O)c2)oc2ccc(OC(C)C)cc12` [Example 105, 2-(4-Fluoro-3-hydroxy-phenyl)-5-isopropoxy-benzofuran-3-carboxylic acid methylamide], the EC50 in test [1] (setting [12]) is less than 30000 nM. In addition, at HCV NS5B (HCV NS5B RdRp, BB7 genotype 1b), the IC50 was 5000 to 30000 nM.
Turning to `CNC(=O)c1c(-c2ccc(F)cc2)oc2cc(-c3c(COC)noc3C3CC3)c(OC)cc12` [Example 344, 6-(5-Cyclopropyl-3-methoxymethyl-isoxazol-4-yl)-2-(4-fluoro-phenyl)-5-methoxy-benzofuran-3-carboxylic acid methylamide], the EC50 in test [1] (setting [4]) was less than 1000 nM. Moreover, the IC50 on HCV NS5B (setting [5]) is not above 500 nM.
Regarding `CNC(=O)c1c(-c2ccc(F)cc2)oc2cc(-c3ccn[nH]3)c(OC(C)C)cc12` [Example 230, 2-(4-Fluoro-phenyl)-5-isopropoxy-6-(2H-pyrazol-3-yl)-benzofuran-3-carboxylic acid methylamide], the EC50 in test [1] (setting [7]) is less than 10000 nM. Also, the IC50 at HCV NS5B (setting [8]) is not above 500 nM.
As for `CNC(=O)c1c(-c2ccccc2F)oc2ccc(OC)cc12` [Example 58, 2-(2-Fluoro-phenyl)-5-methoxy-benzofuran-3-carboxylic acid methylamide], the EC50 in test [1] (setting [2]) was less than 10000 nM. Besides, on HCV NS5B (setting [3]), the IC50 fell in the range of 500 to 5000 nM.
Regarding `CNC(=O)c1c(-c2ccc(F)cc2)oc2cc(CO)c(OC(C)C)cc12` [Example 224, 2-(4-Fluoro-phenyl)-6-hydroxymethyl-5-isopropoxy-benzofuran-3-carboxylic acid methylamide], the EC50 in test [1] (setting [7]) was less than 10000 nM. In addition, on HCV NS5B (setting [8]), the IC50 was not above 500 nM.
As to `CCc1cc2c(C(=O)NC)c(-c3ccc(F)cc3)oc2cc1N(C)S(C)(=O)=O` [Example 45, 5-Ethyl-2-(4-fluoro-phenyl)-6-(methanesulfonyl-methyl-amino)-benzofuran-3-carboxylic acid methylamide], in test [1] (setting [2]), the EC50 was less than 1000 nM. In addition, the IC50 on HCV NS5B (setting [3]) is not above 500 nM.
Take `CCCOc1cc2c(C(=O)NC)c(-c3ccc(F)cc3)oc2cc1NS(C)(=O)=O` [Example 445, 2-(4-Fluoro-phenyl)-6-methanesulfonylamino-5-propoxy-benzofuran-3-carboxylic acid methylamide]: the EC50 in test [1] (setting [4]) was less than 1000 nM. Besides, on HCV NS5B (setting [9]), the IC50 is not above 500 nM.
`CNC(=O)c1c(-c2ccc(F)cc2)oc2cc(-c3c(C)noc3C)c(OCc3nccs3)cc12` [Example 410, 6-(3,5-Dimethyl-isoxazol-4-yl)-2-(4-fluoro-phenyl)-5-(thiazol-2-ylmethoxy)-benzofuran-3-carboxylic acid methylamide]: in test [1] (setting [10]), the EC50 was less than 1000 nM. In addition, the IC50 on HCV NS5B (setting [11]) was not above 500 nM.
Turning to `CNC(=O)c1c(-c2ccc(F)cc2)oc2cc(-c3cc(CO)on3)c(OC)cc12` [Example 40, 2-(4-Fluoro-phenyl)-6-(5-hydroxymethyl-isoxazol-3-yl)-5-methoxy-benzofuran-3-carboxylic acid methylamide], in test [1] (setting [2]), the EC50 is less than 1000 nM. Also, on HCV NS5B (setting [3]), the IC50 was not above 500 nM.
For `CNC(=O)c1c(-c2ccc(F)cc2)oc2ccc(Cl)cc12` [Example 73, 5-Chloro-2-(4-fluoro-phenyl)-benzofuran-3-carboxylic acid methylamide] the same measures were less than 10000 nM and 500 to 5000 nM.
Turning to `CNC(=O)c1c(-c2ccc(F)cc2)oc2ccc(OCc3cccc(C(=O)O)c3)cc12` [Example 260, 3-[2-(4-Fluoro-phenyl)-3-methylcarbamoyl-benzofuran-5-yloxymethyl]-benzoic acid], the EC50 in test [1] (setting [4]) is more than 30000 nM. Moreover, the IC50 on HCV NS5B (setting [6]) is not above 500 nM.
Turning to `CNC(=O)c1c(-c2ccc(F)cc2)oc2cc(NC(C)C)c(OC(C)C)cc12` [Example 114, 2-(4-Fluoro-phenyl)-5-isopropoxy-6-isopropylamino-benzofuran-3-carboxylic acid methylamide], the EC50 in test [1] (setting [12]) is less than 1000 nM. Further, the IC50 at HCV NS5B (HCV NS5B RdRp, BB7 genotype 1b) was not above 500 nM.
For `CNC(=O)c1c(-c2ccc(F)cc2)oc2cc(-c3nnn[nH]3)c(OC(C)C)cc12` [Example 139, 2-(4-Fluoro-phenyl)-5-isopropoxy-6-(1H-tetrazol-5-yl)-benzofuran-3-carboxylic acid methylamide] the same measures were more than 30000 nM and 500 to 5000 nM.
For `CNC(=O)c1c(-c2ccc(F)cc2)oc2cc(N(CC(O)c3ccc(F)cc3)S(C)(=O)=O)c(OC(C)C)cc12` (stereo not shown) [Example 322, 2-(4-Fluoro-phenyl)-6-{[2-(4-fluoro-phenyl)-2-hydroxy-ethyl]-methanesulfonyl-amino}-5-isopropoxy-benzofuran-3-carboxylic acid methylamide], the EC50 in test [1] (setting [4]) is less than 1000 nM. Moreover, the IC50 at HCV NS5B (setting [6]) is not above 500 nM.
For `CCc1ccc2oc(-c3ccccc3)c(C(=O)NC)c2c1` [Example 84, 5-Ethyl-2-phenyl-benzofuran-3-carboxylic acid methylamide], the EC50 in test [1] (setting [2]) is less than 30000 nM. On HCV NS5B (setting [3]), the IC50 fell in the range of 500 to 5000 nM.
For `CNC(=O)c1c(-c2ccc(F)c(F)c2)oc2ccc(OC)cc12` [Example 3, 2-(3,4-Difluoro-phenyl)-5-methoxy-benzofuran-3-carboxylic acid methylamide], the EC50 in test [1] (setting [2]) is less than 10000 nM. In addition, the IC50 on HCV NS5B (setting [3]) was not above 500 nM.
